The results in this text go back to ChEMBL document CHEMBL4130348, “Structure-activity relationship investigation for benzonaphthyridinone derivatives as novel potent Bruton's tyrosine kinase (BTK) irreversible inhibitors” (Eur J Med Chem, 2017).

Calls of active or inactive are those of the source. The calls are words filed in the database; no cut-off is given here.

One assay has as its system SU-DHL-2. Put plainly: Antiproliferative activity against human SUDHL2 cells after 72 hrs by CellTiter-Glo assay. The format is functional. To be noted: SU-DHL-2, 72 h. (In general: Cellular ATP, detected with luciferase, serves as a proxy for viable cell number.)
The next assay deals with OCI-AML-3. Put plainly: Antiproliferative activity against human OCI-AML3 cells after 72 hrs by CellTiter-Glo assay. The note with it: OCI-AML-3, 72 h. The format is functional.
The next assay relates to NOMO-1. Put plainly: Antiproliferative activity against human NOMO1 cells after 72 hrs by CellTiter-Glo assay. The format is functional. The note with it: NOMO-1, 72 h.
In assay [1] the target is Cytoplasmic tyrosine-protein kinase BMX (Homo sapiens) (UniProt P51813).
Sequence of Cytoplasmic tyrosine-protein kinase BMX (Homo sapiens) (P51813 whole entry, the tested form may be a part): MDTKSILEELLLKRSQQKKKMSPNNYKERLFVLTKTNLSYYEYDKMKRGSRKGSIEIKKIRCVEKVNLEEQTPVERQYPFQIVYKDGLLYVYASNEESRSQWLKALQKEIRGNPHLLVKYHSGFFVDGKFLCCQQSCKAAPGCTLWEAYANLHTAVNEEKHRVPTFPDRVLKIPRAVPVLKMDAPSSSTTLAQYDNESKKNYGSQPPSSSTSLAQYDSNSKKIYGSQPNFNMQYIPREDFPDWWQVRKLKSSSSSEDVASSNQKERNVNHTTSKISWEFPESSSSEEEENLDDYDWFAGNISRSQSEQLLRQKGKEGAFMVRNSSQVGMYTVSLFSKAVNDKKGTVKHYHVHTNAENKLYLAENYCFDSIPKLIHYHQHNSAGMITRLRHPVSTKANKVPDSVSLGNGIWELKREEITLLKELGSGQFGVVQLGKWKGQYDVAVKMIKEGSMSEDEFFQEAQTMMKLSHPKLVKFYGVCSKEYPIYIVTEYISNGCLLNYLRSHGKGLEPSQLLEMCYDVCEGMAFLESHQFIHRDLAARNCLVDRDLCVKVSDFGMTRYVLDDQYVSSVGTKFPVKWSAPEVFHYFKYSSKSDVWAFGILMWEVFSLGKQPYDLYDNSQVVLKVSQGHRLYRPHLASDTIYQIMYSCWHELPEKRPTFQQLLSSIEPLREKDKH
Description: Inhibition of TEL-fused BMX (unknown origin) expressed in mouse BA/F3 cells after 72 hrs by CellTiter-Glo assay
The target in assay [2] is Tyrosine-protein kinase JAK1 (Homo sapiens) (UniProt P23458). Kind of assay: Inhibition of TEL-fused JAK1 (unknown origin) expressed in mouse BA/F3 cells after 72 hrs by CellTiter-Glo assay. In kind it is cell-based.
Sequence of Tyrosine-protein kinase JAK1 (Homo sapiens) (P23458 whole entry, the tested form may be a part): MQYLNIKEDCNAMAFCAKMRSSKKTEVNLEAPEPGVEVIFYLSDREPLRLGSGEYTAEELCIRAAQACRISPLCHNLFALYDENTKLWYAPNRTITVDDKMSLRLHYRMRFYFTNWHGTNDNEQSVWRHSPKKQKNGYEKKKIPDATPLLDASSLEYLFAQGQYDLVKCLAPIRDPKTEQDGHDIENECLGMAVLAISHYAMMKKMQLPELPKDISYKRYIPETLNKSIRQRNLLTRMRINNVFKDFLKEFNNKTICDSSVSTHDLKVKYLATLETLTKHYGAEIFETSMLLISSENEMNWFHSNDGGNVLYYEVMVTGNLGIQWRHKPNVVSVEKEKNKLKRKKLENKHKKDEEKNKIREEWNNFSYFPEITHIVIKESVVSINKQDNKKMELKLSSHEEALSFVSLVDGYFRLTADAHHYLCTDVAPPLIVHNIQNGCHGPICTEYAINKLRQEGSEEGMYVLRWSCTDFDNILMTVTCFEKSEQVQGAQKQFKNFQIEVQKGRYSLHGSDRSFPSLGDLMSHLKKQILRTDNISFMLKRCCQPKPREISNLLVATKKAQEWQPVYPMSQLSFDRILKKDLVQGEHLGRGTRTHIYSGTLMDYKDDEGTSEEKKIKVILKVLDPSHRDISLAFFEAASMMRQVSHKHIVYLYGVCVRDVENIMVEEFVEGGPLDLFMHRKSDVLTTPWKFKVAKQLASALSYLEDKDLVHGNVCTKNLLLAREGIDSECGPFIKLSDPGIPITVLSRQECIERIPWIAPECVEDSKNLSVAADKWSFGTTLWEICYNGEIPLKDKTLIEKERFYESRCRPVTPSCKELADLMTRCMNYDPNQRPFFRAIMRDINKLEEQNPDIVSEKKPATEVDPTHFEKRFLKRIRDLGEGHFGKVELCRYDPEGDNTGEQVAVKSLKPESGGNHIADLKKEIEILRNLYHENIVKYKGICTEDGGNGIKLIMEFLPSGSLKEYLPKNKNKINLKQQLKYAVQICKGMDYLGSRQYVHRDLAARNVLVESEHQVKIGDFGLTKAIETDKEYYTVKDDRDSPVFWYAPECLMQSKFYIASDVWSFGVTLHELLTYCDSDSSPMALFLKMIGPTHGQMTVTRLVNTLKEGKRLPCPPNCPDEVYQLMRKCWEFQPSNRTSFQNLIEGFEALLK
The target in assay [3] is T1, Tyrosine-protein kinase BTK (Homo sapiens, UniProt Q06187). Kind of assay: Inhibition of recombinant full length His-tagged human BTK expressed in baculovirus expression system using poly (4:1 Glu, Tyr) as substrate preincubated for 1 hr followed by substrate addition measured after 1 hr by ADP-glo assay. (In general: ADP-Glo first removes unused ATP, then detects ADP through luciferase.)
T1 sequence (Q06187 whole entry): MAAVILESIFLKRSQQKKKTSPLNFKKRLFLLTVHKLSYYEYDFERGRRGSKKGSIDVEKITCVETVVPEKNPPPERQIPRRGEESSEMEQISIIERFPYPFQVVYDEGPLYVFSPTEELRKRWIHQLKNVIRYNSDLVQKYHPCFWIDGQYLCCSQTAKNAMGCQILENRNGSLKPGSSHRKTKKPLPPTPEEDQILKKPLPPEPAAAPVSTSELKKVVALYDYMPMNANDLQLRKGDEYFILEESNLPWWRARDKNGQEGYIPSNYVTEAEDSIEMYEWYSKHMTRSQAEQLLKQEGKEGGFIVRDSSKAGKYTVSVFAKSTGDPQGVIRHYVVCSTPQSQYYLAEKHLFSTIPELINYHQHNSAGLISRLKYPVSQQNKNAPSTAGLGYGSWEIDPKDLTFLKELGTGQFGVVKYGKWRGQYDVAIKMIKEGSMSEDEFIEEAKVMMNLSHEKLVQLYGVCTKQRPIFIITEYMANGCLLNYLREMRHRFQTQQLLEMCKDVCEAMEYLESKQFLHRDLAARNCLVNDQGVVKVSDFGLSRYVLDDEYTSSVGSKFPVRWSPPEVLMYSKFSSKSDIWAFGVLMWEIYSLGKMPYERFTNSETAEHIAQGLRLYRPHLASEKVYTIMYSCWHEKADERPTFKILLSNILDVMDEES

A further assay relates to K562. Put plainly: Antiproliferative activity against human K562 cells after 72 hrs by CellTiter-Glo assay. The note with it: K562, 72 h. The format is functional.
The next assay in a line: cells. The format is functional. To be noted: Homo sapiens, CLL cell, 72 h.
Another assay concerns Z-138. Kind of assay: Antiproliferative activity against human Z138 cells after 72 hrs by CellTiter-Glo assay. The note with it: Z-138, 72 h. The format is functional.
For assay [4], the target named is T2, Tyrosine-protein kinase JAK3 (Homo sapiens, UniProt P52333).
T2 sequence (P52333 whole entry): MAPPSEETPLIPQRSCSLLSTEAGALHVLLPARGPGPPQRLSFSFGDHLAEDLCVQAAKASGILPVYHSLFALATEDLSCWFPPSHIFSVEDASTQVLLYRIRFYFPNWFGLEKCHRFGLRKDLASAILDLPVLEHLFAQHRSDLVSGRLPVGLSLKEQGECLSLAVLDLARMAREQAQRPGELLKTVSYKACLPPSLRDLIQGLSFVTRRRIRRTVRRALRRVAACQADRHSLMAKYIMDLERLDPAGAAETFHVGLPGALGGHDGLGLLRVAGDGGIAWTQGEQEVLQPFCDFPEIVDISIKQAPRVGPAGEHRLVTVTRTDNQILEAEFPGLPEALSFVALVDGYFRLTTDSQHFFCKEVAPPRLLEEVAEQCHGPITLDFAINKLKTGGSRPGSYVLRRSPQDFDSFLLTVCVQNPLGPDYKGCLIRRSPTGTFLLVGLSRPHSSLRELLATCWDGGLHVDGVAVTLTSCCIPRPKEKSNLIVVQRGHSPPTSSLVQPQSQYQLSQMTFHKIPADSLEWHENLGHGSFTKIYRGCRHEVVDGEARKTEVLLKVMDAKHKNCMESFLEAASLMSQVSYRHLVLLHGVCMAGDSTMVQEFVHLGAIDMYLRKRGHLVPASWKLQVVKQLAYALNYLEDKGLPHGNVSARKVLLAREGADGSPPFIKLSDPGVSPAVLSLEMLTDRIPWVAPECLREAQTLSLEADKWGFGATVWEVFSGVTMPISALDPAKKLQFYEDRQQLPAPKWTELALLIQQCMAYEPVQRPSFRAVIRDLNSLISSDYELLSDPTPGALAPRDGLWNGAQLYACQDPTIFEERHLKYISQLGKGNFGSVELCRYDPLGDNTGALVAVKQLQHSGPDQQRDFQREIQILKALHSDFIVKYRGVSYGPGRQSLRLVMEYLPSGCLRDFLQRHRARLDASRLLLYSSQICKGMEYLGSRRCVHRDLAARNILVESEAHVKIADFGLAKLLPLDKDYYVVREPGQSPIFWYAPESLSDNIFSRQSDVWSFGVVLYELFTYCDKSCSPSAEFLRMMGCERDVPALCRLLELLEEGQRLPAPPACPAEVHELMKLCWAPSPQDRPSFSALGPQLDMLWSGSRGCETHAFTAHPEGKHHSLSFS
Kind of assay: Inhibition of recombinant GST-tagged human JAK3 expressed in baculovirus expression system using poly (4:1 Glu, Tyr) as substrate preincubated for 1 hr followed by substrate addition measured after 1 hr by ADP-glo assay.

The target in assay [5] is T1, Tyrosine-protein kinase BTK. Kind of assay: Inhibition of BTK transphosphorylation at Y551 in anti-IgM stimulated human MOLM13 cells at 100 to 1000 nM after 4 hrs by chemiluminescence assay.
The test system of assay [6] is Ramos. Put plainly: Cell cycle arrest in human Ramos cells assessed as accumulation at G0/G1 phase up to 10 uM after 48 hrs by propidium iodide staining-based flow cytometric method. In kind it is functional.
The target in assay [7] is T1, Tyrosine-protein kinase BTK. Put plainly: Inhibition of BTK in anti-IgM stimulated human Pfeiffer cells assessed as decrease in PLCgamma2 phosphorylation at Y1217 at 100 to 1000 nM after 4 hrs by chemiluminescence assay. In kind it is cell-based.
For assay [8] the target is unchanged. Kind of assay: Inhibition of BTK in anti-IgM stimulated human Ramos cells assessed as decrease in PLCgamma2 phosphorylation at Y1217 after 4 hrs by chemiluminescence assay. The format is cell-based.
Assay [9] concerns the target Cytoplasmic tyrosine-protein kinase BMX (Homo sapiens, UniProt P51813). Put plainly: Inhibition of recombinant full length His-tagged human BMX expressed in baculovirus expression system using poly (4:1 Glu, Tyr) as substrate preincubated for 1 hr followed by substrate addition measured after 1 hr by ADP-glo assay.
The subject of the next assay is Pfeiffer. Kind of assay: Induction of apoptosis in human Pfeiffer cells assessed as PARP cleavage up to 10 uM after 48 hrs by immunoblot method. The format is functional, cell-based.
The target in assay [10] is Tyrosine-protein kinase Blk (Homo sapiens, UniProt P51451). Put plainly: Inhibition of recombinant full length His-tagged human BLK expressed in baculovirus expression system using poly (4:1 Glu, Tyr) as substrate preincubated for 1 hr followed by substrate addition measured after 1 hr by ADP-glo assay.
Sequence of Tyrosine-protein kinase Blk (P51451 whole entry): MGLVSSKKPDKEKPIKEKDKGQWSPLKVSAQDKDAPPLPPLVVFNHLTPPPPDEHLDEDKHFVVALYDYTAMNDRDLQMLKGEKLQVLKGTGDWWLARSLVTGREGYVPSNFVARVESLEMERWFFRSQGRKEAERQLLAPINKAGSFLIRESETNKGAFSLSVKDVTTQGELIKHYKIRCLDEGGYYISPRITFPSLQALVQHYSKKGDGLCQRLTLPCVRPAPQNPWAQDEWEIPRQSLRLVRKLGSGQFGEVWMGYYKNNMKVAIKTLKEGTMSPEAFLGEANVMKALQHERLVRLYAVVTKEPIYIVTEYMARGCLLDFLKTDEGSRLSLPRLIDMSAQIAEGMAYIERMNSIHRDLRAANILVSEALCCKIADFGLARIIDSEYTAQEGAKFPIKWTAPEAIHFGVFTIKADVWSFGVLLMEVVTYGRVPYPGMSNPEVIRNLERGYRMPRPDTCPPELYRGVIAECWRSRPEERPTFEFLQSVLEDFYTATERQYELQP
The test system of assay [11] is MOLM-13. Put plainly: Cell cycle arrest in human MOLM13 cells assessed as accumulation at G0/G1 phase up to 10 uM after 48 hrs by propidium iodide staining-based flow cytometric method. In kind it is functional.
The subject of assay [12] is Ramos. Kind of assay: Induction of apoptosis in human Ramos cells assessed as caspase-3 cleavage up to 10 uM after 48 hrs by immunoblot method. In kind it is functional, cell-based. A general note: Immunoblotting shows a protein as a band on a membrane.
In assay [13] the target is T1, Tyrosine-protein kinase BTK. Put plainly: Irreversible inhibition of recombinant full length His-tagged human BTK expressed in baculovirus expression system using poly (4:1 Glu, Tyr) as substrate preincubated for 2 to 60 mins followed by substrate addition measured after 1 hr by ADP-glo assay.
Assay [14] relates to MOLM-13. Kind of assay: Induction of apoptosis in human MOLM13 cells assessed as caspase-3 cleavage up to 10 uM after 48 hrs by immunoblot method. In kind it is functional, cell-based.
Assay [15] addresses T1, Tyrosine-protein kinase BTK. Kind of assay: Inhibition of BTK transphosphorylation at Y551 in anti-IgM stimulated human Ramos cells at 100 to 1000 nM after 4 hrs by chemiluminescence assay. In kind it is cell-based.
For assay [16], the system named is MOLM-13. Kind of assay: Induction of apoptosis in human MOLM13 cells assessed as PARP cleavage up to 10 uM after 48 hrs by immunoblot method. The format is functional, cell-based.

Sequence of Cytoplasmic tyrosine-protein kinase BMX (P51813 whole entry): as the sequence (P51813 whole entry, the tested form may be a part) above

Regarding `CCC(=O)Nc1cc(-n2c(=O)ccc3cnc4ccc(-n5cccn5)cc4c32)ccc1C`, the GI50 (in the assay with SU-DHL-2; with OCI-AML-3; with NOMO-1; in assay [1]; in assay [2]; with K562) was > 10 µM throughout. The GI50 in the assay “cells” and in the assay on Z-138 was > 10 µM in each case. The IC50 is 6.87 µM in assay [3] and > 10 µM in assay [4].

In the case of `C=CC(=O)Nc1cc(-n2c(=O)ccc3cnc4ccc(-n5cccn5)cc4c32)ccc1C`, the concentration for 50% growth inhibition (GI50) with SU-DHL-2 is > 10 µM; with OCI-AML-3, 5.6 µM; with NOMO-1 it was 4.9 µM; in assay [1], 0.018 µM; in assay [2], 2.67 µM; in the assay on K562, > 10 µM. Further, the GI50 in “cells” was determined as 2.9 µM; with Z-138, 8.5 µM. Besides, the inhibition result in [5], in assay [7] and in [15] was “inactive” in each case. In addition, the result with Ramos [6], in the assay with Pfeiffer, in the assay with MOLM-13 [11], in the assay on Ramos [12], in the assay on MOLM-13 [14] and with MOLM-13 [16] was Active. For the same compound, the EC50 in assay [8] was < 1 µM. Further, the values for the IC50 in assay [9], in assay [10] and in [4] were 0.083 µM, > 10 µM and > 10 µM, respectively. Also, the Ki in [13] was determined as 0.097 µM. Further, in assay [13], the Kinact came out at 0.07 min⁻¹.

The term GI50 denotes the concentration at which growth is held to half of that of the control. A word on the IC50: it is the concentration that gives 50% inhibition. One may read the EC50 as the concentration giving half of the maximal effect.
